Experimental data as given in US9302004B2, “Phenalene-1-one derivatives, method for producing same and use thereof” (TRIOPTOTEC GMBH, priority 2011, dated 2016).
Where a name gives a salt, the structure may show the parent alone.

What was measured:
Assay type in all cases: cell-based
[1] = tested on: Staphylococcus aureus (ATCC number: 25923); experiment: Phototoxicity test (photodynamic activity, CFU assay) against gram-positive bacteria; details: for Required concentration in order to achieve a reduction by ≧ 3 log10 steps: S. aureus, 15 min incubation in darkness, then irradiation 12.3 J/cm^2 blue light (Emax 418 nm), CFU/ml 24 h after; for antimicrobial action compared with the starting substance perinaphthenone: from Table 1 (S. aureus and E. coli, sentence does not separate them), reduction of the germ count by 3 log10 steps; for times lower concentration needed to achieve a reduction by 3 log10 steps, compared with perinaphthenone: phototoxicity test, Table 1 (S. aureus and E. coli, sentence does not separate them)
Description: (§1) A sample of the bacterial strain Staphylococcus aureus (ATCC number: 25923) or Escherichia coli (ATCC number: 25922) was extracted from a cryogenically frozen culture, isolated on Müller-Hinton agar plates, and cultured under aerobic conditions at 37° C. in an overnight culture. 10 ml Müller-Hinton liquid medium was then inoculated with a smear of the bacterial culture (individual colony) and incubated overnight at 37° C. The thus-obtained bacterial suspension was centrifuged for 15 min at 3000 rpm and the obtained bacterial pellet was resuspended in 10 ml sterile PBS. The optical density of the bacterial suspensions for the phototoxicity tests was OD600nm=0.6, which corresponds to a bacterial count of ˜[…] bacteria per ml. The biochemical analysis and resistance determination of the bacteria were carried out with the VITEK2 system according to the guidelines M100-S14 of the NCCLS (National Committee for Clinical Laboratory Standards guidelines 2004).
(§2) 200 μl of a bacterial suspension (bacterial density: 10^8-10^12/ml) was incubated with 200 μl each of different concentrations of the photosensitizers listed in Table 1 at 37° C. in darkness for 15 minutes. The bacteria were then washed twice with PBS, resuspended in 200 μl PBS, the entire volume was transferred to a 96-well microtiter plate and then irradiated.
(§3) For the sensitization, the UV 236 lamp (emission 380-480 nm, with an emission maximum Emax: 418 nm) from Waldmann Medizintechnik was used and the plates lying on the light source were irradiated from below, in order to prevent scattering through the liquid. The applied light dose was 12.3 J/cm^2. As controls, bacterial suspensions that were irradiated, not irradiated and only incubated with photosensitizer were entrained, and incubated both with and without photosensitizer.
(§4) The CFU assay was then carried out to determine the colony-forming units per ml (CFU). For this, a series of dilutions from 10^−1 to 10^−9 of the corresponding bacterial suspension was produced. 100 μl was then plated onto Müller-Hinton plates and incubated at 37° C. for 24 h. The number of surviving colonies was then determined by counting and plotted on a graph as colony-forming units (CFU) per ml against the respectively used photosensitizer concentration.

[2] = tested on: Escherichia coli (ATCC number: 25922); experiment: Phototoxicity test (photodynamic activity, CFU assay) against gram-negative bacteria; details: E. coli; 15 min incubation in darkness, then irradiation 12.3 J/cm^2 blue light (Emax 418 nm); CFU/ml 24 h after
Description: as §1, §2, §3, §4

S. aureus = experiment: Surface disinfection of catheter tubes, cell count after illumination; details: catheter sections with dried S. aureus; 5 min in darkness, 12.3 J/cm^2 blue light (Emax 418 nm) for 30 min
Description: 5-cm long catheter sections were filled with 1 ml of a stable S. aureus solution (1 E+12 cfu/ml) and incubated overnight at 37° C. After drying-out of the solution, in each case 2 ml of a solution of PBS which contained a corresponding concentration (0, 1, 10, 50, 80 and 100 μM) of the compounds produced in Examples 2), 4b), 5b), 7) and 10) and 1H-phenalene-1-one was sprayed. After a short exposure time of 5 minutes in darkness, the catheter sections were illuminated with a light dose of 12.3 J/cm^2 with blue light (Emax: 418 nm) for a period of 30 min.
As a control, in each case non-illuminated catheter sections were used, to which the corresponding concentrations (0, 1, 10, 50, 80 and 100 μM) of the compounds produced in Examples 1b)-f) and 1H-phenalene-1-one were applied.
To determine the cell count, the illuminated and non-illuminated catheter sections were filled with 1 ml PBS and ultrasounded. Growth medium was added to the washing solution in different dilutions (10^0 to 10^7) and the solution was smeared onto agar plates. The cell count was performed after 24 h of incubation at 37° C.

Compound | Required concentration in order to achieve a reduction by ≧ 3 log10 steps [1] | Required concentration in order to achieve a reduction by ≧ 3 log10 steps [2] | times lower concentration needed to achieve a reduction by 3 log10 steps, compared with perinaphthenone (S. aureus) | antimicrobial action compared with the starting substance perinaphthenone [1] | times lower concentration needed to achieve a reduction by 3 log10 steps, compared with perinaphthenone [1]
O=C1C=Cc2cccc3cccc1c23 [Comparison, perinaphthenone, reference compound] | 200 μM | 300 μM | – | – | –
NCC1=Cc2cccc3cccc(c23)C1=O [Example 2, 2-Aminomethyl-1H-phenalene-1-one] | 1 μM | 50 μM | approximately 10 times | improved antimicrobial action | approximately 10 times
NCCOCC1=Cc2cccc3cccc(c23)C1=O [Example 4b, 2-((2-Aminoethoxy)methyl)-1H-phenalene-1-one hydrochloride] | 50 μM | 300 μM | approximately 10 times | improved antimicrobial action | approximately 10 times
NCCOCCOCC1=Cc2cccc3cccc(c23)C1=O [Example 5b, 2-((2-(2-Aminoethoxy)ethoxy)methyl)-1H-phenalene-1-one hydrochloride] | 50 μM | 80 μM | approximately 10 times | improved antimicrobial action | approximately 10 times
O=C1C(C[n+]2ccccc2)=Cc2cccc3cccc1c23 [Example 7] | 80 μM | 10 μM | approximately 10 times | improved antimicrobial action | approximately 10 times
CC[N+](CC)(CC)CC1=Cc2cccc3cccc(c23)C1=O [Example 10, 2-((N,N,N-Triethyl)aminomethyl)-1H-phenalene-1-one hydrochloride] | 50 μM for S. aureus; 50 μM for E. coli | 50 μM for S. aureus; 50 μM for E. coli | approximately 10 times | improved antimicrobial action | approximately 10 times
